Source: patent US11401277B2, “Anti-bacterial heterocyclic compounds and their synthesis” (Bugworks Research, Inc., priority 2017, dated 2022)
In brackets after ≈: the same amount, converted by molar mass. Like-named read-outs stand apart in the source and are kept apart here.

Legend:
E. coli DNA gyrase = E. coli DNA gyrase (Escherichia coli, UniProt P0AES4+P0AES6); experiment: biochemical
[1] = test system: A. baumanni clinical strains; experiment: Susceptibility (MIC50 and MIC90 determination) studies, clinical strains; assay type: cell-based; conditions: CLSI
[2] = test system: K. pneumoniae clinical strains; experiment: as above; assay type: cell-based; conditions: CLSI
hERG potassium channel = target: T1, hERG potassium channel (Homo sapiens, UniProt Q12809); experiment: hERG inhibition assay, QPatch HTX automated electrophysiology; assay type: cell-based; conditions: CHO cell line expressing hERG; whole-cell patch clamp, room temperature
T1 construct: Chinese Hamster Ovary cell line stably expressing the full-length hERG potassium channel; expressed in transfected cells
T1 sequence (Q12809 whole entry): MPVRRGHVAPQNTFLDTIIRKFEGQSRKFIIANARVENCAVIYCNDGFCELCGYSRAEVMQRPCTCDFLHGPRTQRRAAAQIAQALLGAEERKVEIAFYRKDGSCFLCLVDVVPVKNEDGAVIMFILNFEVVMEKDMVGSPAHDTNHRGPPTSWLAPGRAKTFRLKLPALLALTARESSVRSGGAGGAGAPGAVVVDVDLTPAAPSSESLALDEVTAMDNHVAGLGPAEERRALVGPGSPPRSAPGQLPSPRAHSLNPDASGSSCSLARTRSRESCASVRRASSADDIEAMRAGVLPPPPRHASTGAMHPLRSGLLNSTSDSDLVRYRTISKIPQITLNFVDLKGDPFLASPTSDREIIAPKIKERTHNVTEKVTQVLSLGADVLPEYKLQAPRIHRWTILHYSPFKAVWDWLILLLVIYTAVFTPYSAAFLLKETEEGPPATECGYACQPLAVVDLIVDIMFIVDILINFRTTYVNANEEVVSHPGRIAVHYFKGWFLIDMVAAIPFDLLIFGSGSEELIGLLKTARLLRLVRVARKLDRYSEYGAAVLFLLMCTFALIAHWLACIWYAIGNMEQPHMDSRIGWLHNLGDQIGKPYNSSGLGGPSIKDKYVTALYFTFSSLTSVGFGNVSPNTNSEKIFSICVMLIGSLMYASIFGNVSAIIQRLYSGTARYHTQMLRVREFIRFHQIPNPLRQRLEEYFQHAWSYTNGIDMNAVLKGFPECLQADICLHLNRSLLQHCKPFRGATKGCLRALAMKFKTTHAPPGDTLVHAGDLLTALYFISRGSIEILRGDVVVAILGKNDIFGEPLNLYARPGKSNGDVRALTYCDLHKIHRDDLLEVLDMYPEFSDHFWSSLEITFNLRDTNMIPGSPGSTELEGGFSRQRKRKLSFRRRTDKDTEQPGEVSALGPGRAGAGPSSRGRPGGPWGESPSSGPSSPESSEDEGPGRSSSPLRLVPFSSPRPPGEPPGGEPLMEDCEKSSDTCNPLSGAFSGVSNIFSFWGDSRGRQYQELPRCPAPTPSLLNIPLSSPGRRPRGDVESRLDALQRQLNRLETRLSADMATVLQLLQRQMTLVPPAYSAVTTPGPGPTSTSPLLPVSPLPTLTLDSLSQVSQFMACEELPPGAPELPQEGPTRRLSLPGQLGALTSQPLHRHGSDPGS
Experimental: The compounds were tested for inhibition of the human ether a go-go related gene (hERG) K+ channel using QPatch HTX automated electrophysiology.
Compounds of Formula I were solubilised to 100 mM in DMSO before dilution in HBPS to 300 μM.
Electrophysiological recordings were made from a Chinese Hamster Ovary cell line stably expressing the full-length hERG potassium channel. Single cell ionic currents were measured in whole-cell patch clamp configuration at room temperature (21-23° C.) using the QPatch HTX platform (Sophion). Intracellular solution contained (mM): 120 KF, 20 KCl, 10 EGTA, 10 HEPES and was buffered to pH 7.3. […] Cells were clamped at a holding potential of −80 mV. Cells were stepped to +20 mV for 2 s then −40 mV for 3 s before returning to the holding potential. This sweep was repeated 10 times at 10 s intervals. hERG currents were measured from the tail step and referenced to the holding current. Compounds were then incubated for 2 minutes prior to a second measurement of ion channel current using an identical pulse train.

[3] = IV Formulation solubility; assay type: physicochemical; conditions: 10% L-ascorbic acid in MilliQ water, 37 °C, pH 2.8, aqueous with cosolvent or surfactant or cyclodextrin, thermodynamic from solid, 1N NaOH for pH adjustment, read-out: Solubility in 10% L-ascorbic acid in fresh MilliQ water(v/v), Final pH~2.8
Experimental: Procedure: Weighed appropriate amount of the Compound 2 to be tested and dissolved in 1 ml of the 10% ascorbic acid solution. (Vortex for a few seconds if the compound doesn't dissolve instantly). Sonicated the compound solution at 37° C. for 5 minutes using a bath sonicator to obtain a visually clear solution. […]

[4] = Stability of IV formulation at room temperature; assay type: physicochemical; conditions: 10% L-ascorbic acid formulation
[5] = In vivo pharmacokinetic (PK) studies in rats; parameters: species or system Sprague-Dawley (SD) rats; conditions: for Cmax / Vd / bioavailability / AUC(0-inf) / AUC(0-t) / Tmax / half-life / clearance: Sprague-Dawley, rat, plasma; for Vd: iv; for bioavailability: po, read-out: Bioavailability* (F, %); for clearance: read-out: CLp (converted)
[6] = Klebsiella pneumoniae, Kpn clinical strains

Chain of E. coli DNA gyrase (P0AES4 whole entry, one chain of several): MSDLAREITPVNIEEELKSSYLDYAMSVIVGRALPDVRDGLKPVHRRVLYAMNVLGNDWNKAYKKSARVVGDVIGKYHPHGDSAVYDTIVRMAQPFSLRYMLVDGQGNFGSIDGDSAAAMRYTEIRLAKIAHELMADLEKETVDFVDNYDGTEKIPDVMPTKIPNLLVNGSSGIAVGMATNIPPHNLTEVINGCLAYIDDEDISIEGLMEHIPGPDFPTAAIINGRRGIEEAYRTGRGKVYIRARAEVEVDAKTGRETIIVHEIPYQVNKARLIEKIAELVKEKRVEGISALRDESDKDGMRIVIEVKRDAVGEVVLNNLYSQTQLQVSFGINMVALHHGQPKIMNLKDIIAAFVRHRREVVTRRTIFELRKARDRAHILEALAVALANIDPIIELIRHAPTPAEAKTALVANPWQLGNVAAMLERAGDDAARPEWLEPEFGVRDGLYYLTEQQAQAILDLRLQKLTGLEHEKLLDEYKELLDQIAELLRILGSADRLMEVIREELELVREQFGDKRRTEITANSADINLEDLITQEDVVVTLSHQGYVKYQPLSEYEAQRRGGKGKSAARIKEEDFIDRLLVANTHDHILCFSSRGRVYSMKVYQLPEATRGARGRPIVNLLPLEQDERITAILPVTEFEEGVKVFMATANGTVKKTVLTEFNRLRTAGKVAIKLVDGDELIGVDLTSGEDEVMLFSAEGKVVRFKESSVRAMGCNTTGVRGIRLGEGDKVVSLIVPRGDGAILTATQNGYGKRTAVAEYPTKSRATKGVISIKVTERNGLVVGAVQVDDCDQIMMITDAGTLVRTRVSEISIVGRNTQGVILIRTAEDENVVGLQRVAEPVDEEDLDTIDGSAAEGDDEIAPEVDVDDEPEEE

Cn1c(=O)ccc2ccc(F)c(OCCNC[C@H]3CN(c4cnc5c(n4)NC(=O)CO5)C(=O)O3)c21 [Compound 2, (S)-6-(5-(((2-((7-fluoro-1-methyl-2-oxo-1,2-dihydroquinolin-8-yl)oxy)ethyl)amino)methyl)-2-oxooxazolidin-3-yl)-2H-pyrazino[2,3-b][1,4]oxazin-3(4H)-one]
IC50 (E. coli DNA gyrase; gel based supercoiling assay, read-out: E. coli DNA Gyrase IC50): 12 nM
IC50 (E. coli DNA gyrase; unit inferred, read-out: IC50 E. coli DNA Gyrase): ≤ 50 nM
MIC50 ([1]; Aba clinical strains): 0.06 µg/mL (≈ 0.124 µM)
MIC90 ([1]; Aba clinical strains): 0.25 µg/mL (≈ 0.516 µM)
Minimum (MIC) ([1]; Aba clinical strains, MIC50/MIC90 in μg/ml, in µg/mL): 0.03
MIC ATCC19606 ([1]; Aba reference strain ATCC19606, MIC50/MIC90 in μg/ml): 0.06 µg/mL (≈ 0.124 µM)
MIC50 [2, 6]: 0.125 µg/mL (≈ 0.258 µM)
MIC90 [2, 6]: 0.5 µg/mL (≈ 1.03 µM)
Minimum (MIC) ([2]; Kpn clinical strains, MIC50/MIC90 in μg/ml): 0.06 µg/mL
MIC ATCC13883 ([2]; Kpn reference strain ATCC13883, MIC50/MIC90 in μg/ml): 0.06 µg/mL (≈ 0.124 µM)
IC50 (hERG potassium channel): 124000 nM
solubility at 5 min [3]: 15 mg/mL (≈ 31000 µM)
IV formulation stable at room temperature [4]: more than 24 hours
AUC and Cmax versus dose (in words) ([5]; IV infusion and Oral dosing at 5, 10, 30 & 100 mg/kg doses in SD rats): Dose proportional increase
clearance (in words) ([5]; SD rats): moderate
half life (in words) ([5]; SD rats): moderate
oral bioavailability (in words) ([5]; SD rats): good
volume of distribution (in words) ([5]; SD rats): low
Cmax ([5]; 5 mg/kg, IV (1 h infusion), male SD rats): 2800 ± 970 ng/mL
Cmax ([5]; 10 mg/kg PO, male SD rats): 2580 ± 75 ng/mL
Cmax ([5]; 30 mg/kg, IV (1 h infusion), male SD rats): 25200 ± 610 ng/mL
Cmax ([5]; 100 mg/kg, IV (1 h infusion), male SD rats): 93400 ± 4400 ng/mL
Cmax ([5]; 150 mg/kg, IV (1 h infusion), male SD rats): 112000 ± 7580 ng/mL
Vd ([5]; male, 5 mg/kg, IV, read-out: Vd): 6.4 ± 1.07 L/kg
Vd ([5]; male, 5 mg/kg, IV, read-out: Vss): 1.09 ± 0.13 L/kg
Vd ([5]; male, 30 mg/kg, IV, read-out: Vd): 4.94 ± 1.8 L/kg
Vd ([5]; male, 30 mg/kg, IV, read-out: Vss): 0.62 ± 0.05 L/kg
Vd ([5]; male, 100 mg/kg, IV, read-out: Vd): 5.57 ± 0.56 L/kg
Vd ([5]; male, 100 mg/kg, IV, read-out: Vss): 0.69 ± 0.02 L/kg
Vd ([5]; male, 150 mg/kg, IV, read-out: Vd): 5.38 ± 1.1 L/kg
Vd ([5]; male, 150 mg/kg, IV, read-out: Vss): 0.73 ± 0.07 L/kg
bioavailability ([5]; male, 10 mg/kg): 33.3 ± 3.1%
bioavailability ([5]; male, 30 mg/kg): 66.8 ± 14.4%
bioavailability ([5]; male, 100 mg/kg): 38.4 ± 12.4%
bioavailability ([5]; male, 300 mg/kg): 24.2 ± 15.6%
AUC(0-inf) ([5]; male, 5 mg/kg, IV): 1870 ± 350 ng·h/mL
AUC(0-t) ([5]; male, 5 mg/kg, IV): 1870 ± 350 ng·h/mL
Tmax ([5]; male, 5 mg/kg, IV): 0.76 ± 0.02 h
half-life ([5]; male, 5 mg/kg, IV): 1.53 ± 0.07 h
clearance ([5]; male, 5 mg/kg, IV): 45.7 mL/min/kg
AUC(0-inf) ([5]; male, 10 mg/kg PO): 1240 ± 100 ng·h/mL
Tmax ([5]; male, 10 mg/kg PO): 0.25 h
half-life ([5]; male, 10 mg/kg PO): 1.84 ± 0.15 h
AUC(0-inf) ([5]; male, 30 mg/kg, IV): 21800 ± 150 ng·h/mL
AUC(0-t) ([5]; male, 30 mg/kg, IV): 21780 ± 150 ng·h/mL
Tmax ([5]; male, 30 mg/kg, IV): 1 h
half-life ([5]; male, 30 mg/kg, IV): 2.45 ± 0.78 h
clearance ([5]; male, 30 mg/kg, IV): 23 mL/min/kg
AUC(0-inf) ([5]; male, 30 mg/kg, PO): 7540 ± 1620 ng·h/mL
Cmax ([5]; male, 30 mg/kg, PO): 8500 ± 2400 ng/mL
Tmax ([5]; male, 30 mg/kg, PO): 0.5 h
